Assay results reported in patent US11464770B2, “Anticancer pharmaceutical composition” (NATIONAL CANCER CENTER, priority 2016, dated 2022).
Where two headings read alike, the source gives them in different places.

Key:
[1] = system: RT4: human urinary bladder transitional cell papilloma; assay: Cell based assay, cytotoxicity in RT4 papilloma cells (selectivity); conditions: Homo sapiens, RT-4; RT4 cells
[2] = system: blood cancer cell lines (e.g. HL-60, Jurkat, Raji, Ramos, Daudi, MOLT-4); assay: Cell based assay, cell viability (CellTiter-Glo), blood cancer cell lines; conditions: Homo sapiens
In short: (§1)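 Each commercial line was plated and allowed 24 h to settle at constant temperature. Compound exposure ran 72 h at final concentrations spanning 0 to 2 μM. Cell viability was then determined by luminescent ATP detection.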

[3] = system: pancreatic cancer cell lines (e.g. MIA PaCa-2); assay: Cell based assay, cell viability (CellTiter-Glo), pancreatic cancer cell lines; conditions: Homo sapiens
In short: as §1

[4] = MV4-11, blood cancer cell line MV-4-11, 72 hours, read-out: IC50, MV-4-11
[5] = blood cancer cell line Daudi, 72 hours, read-out: IC50, Daudi
[6] = blood cancer cell line HL-60, 72 hours, read-out: IC50, HL-60
[7] = blood cancer cell line Jurkat, 72 hours, read-out: IC50, Jurkat
[8] = blood cancer cell line MOLT-4, 72 hours, read-out: IC50, MOLT-4
[9] = blood cancer cell line Raji, 72 hours, read-out: IC50, Raji
[10] = blood cancer cell line Ramos (RA 1), 72 hours, read-out: IC50, Ramos (RA 1)
[11] = blood cancer cell line U-937, 72 hours, read-out: IC50, U-937
[12] = pancreatic cancer cell line AsPC-1, 72 hours, read-out: IC50, AsPC-1
[13] = pancreatic cancer cell line BxPC-3, 72 hours, read-out: IC50, BxPC-3
[14] = pancreatic cancer cell line CFPAC-1, 72 hours, read-out: IC50, CFPAC-1
[15] = pancreatic cancer cell line Capan-1, 72 hours, read-out: IC50, Capan-1
[16] = pancreatic cancer cell line Capan-2, 72 hours, read-out: IC50, Capan-2
[17] = pancreatic cancer cell line MIA PaCa-2, 72 hours, read-out: IC50, MIA PaCa-2
[18] = pancreatic cancer cell line PANC-1, 72 hours, read-out: IC50, PANC-1

Row | Structure (SMILES) | IC50 [1] | IC50 [2, 4] | IC50 [2, 5] | IC50 [2, 6] | IC50 [2, 7] | IC50 [2, 8] | IC50 [2, 9] | IC50 [2, 10] | IC50 [2, 11] | IC50 [3, 12] | IC50 [3, 13] | IC50 [3, 14] | IC50 [3, 15] | IC50 [3, 16] | IC50 [3, 17] | IC50 [3, 18]
1 | CC(=O)c1c([S+]([O-])Cc2ccc(F)cc2F)[nH]c2c(Br)ccc(Cl)c2c1=O (stereo not drawn) [Compound 29, 3-acetyl-8-bromo-5-chloro-2-((2,4-difluorobenzyl)sulfinyl)quinolin-4(1H)-one] | > 10 µM | 1400 nM | > 2000 nM | 1720 nM | 1080 nM | 1440 nM | 1180 nM | 1670 nM | 1050 nM | > 2000 nM | > 2000 nM | > 10000 nM | > 2000 nM | > 2000 nM | 1190 nM | > 2000 nM
2 | CC(=O)c1c([S+]([O-])Cc2ccc(F)c(Cl)c2)[nH]c2c(Br)ccc(Cl)c2c1=O (stereo not drawn) [Compound 31, 3-acetyl-8-bromo-5-chloro-2-((3-chloro-4-fluorobenzyl)sulfinyl)quinolin-4(1H)-one] | > 10 µM | > 2000 nM | 1650 nM | 1930 nM | 940 nM | 1350 nM | 1100 nM | 1830 nM | > 2000 nM | > 2000 nM | > 2000 nM | > 10000 nM | > 2000 nM | > 2000 nM | 1180 nM | > 2000 nM
3 | CC(=O)c1c(S(=O)(=O)Cc2ccccc2)[nH]c2c(Br)ccc(Cl)c2c1=O [Compound 34, 3-acetyl-2-(benzylsulfonyl)-8-bromo-5-chloroquinolin-4(1H)-one] | > 10 µM | > 2000 nM | > 2000 nM | > 2000 nM | > 2000 nM | > 2000 nM | > 2000 nM | > 2000 nM | > 2000 nM | > 2000 nM | > 2000 nM | > 10000 nM | > 2000 nM | > 2000 nM | 1990 nM | > 2000 nM
4 | CC(=O)c1c([S+]([O-])Cc2cc(Cl)ccc2Cl)[nH]c2c(Br)ccc(Cl)c2c1=O (stereo not drawn) [Compound 44, 3-acetyl-8-bromo-5-chloro-2-((2,5-dichlorobenzyl)sulfinyl)quinolin-4(1H)-one] | > 10 µM | 1980 nM | 1800 nM | 1730 nM | 1130 nM | 1470 nM | 1160 nM | 1930 nM | > 2000 nM | > 2000 nM | > 2000 nM | > 10000 nM | > 2000 nM | > 2000 nM | 1230 nM | > 2000 nM
5 | CC(=O)c1c([S+]([O-])Cc2cc(F)cc(F)c2)[nH]c2c(Br)ccc(Cl)c2c1=O (stereo not drawn) [Compound 46, 3-acetyl-8-bromo-5-chloro-2-((3,5-difluorobenzyl)sulfinyl)quinolin-4(1H)-one] | > 10 µM | > 2000 nM | > 2000 nM | > 2000 nM | > 2000 nM | > 2000 nM | > 2000 nM | > 2000 nM | > 2000 nM | > 2000 nM | > 2000 nM | > 10000 nM | > 2000 nM | > 2000 nM | 1570 nM | > 2000 nM
6 | CC(=O)c1c([S+]([O-])Cc2cccc(F)c2)[nH]c2c(Br)ccc(Cl)c2c1=O (stereo not drawn) [Compound 50, 3-acetyl-8-bromo-5-chloro-2-((3-fluorobenzyl)sulfinyl)quinolin-4(1H)-one] | > 10 µM | > 2000 nM | > 2000 nM | > 2000 nM | 1200 nM | 1660 nM | 1410 nM | > 2000 nM | > 2000 nM | > 2000 nM | > 2000 nM | > 10000 nM | > 2000 nM | > 2000 nM | 1450 nM | > 2000 nM
7 | CC(=O)c1c([S+]([O-])Cc2cc(C)on2)[nH]c2c(Br)ccc(Cl)c2c1=O (stereo not drawn) [Compound 51, 3-acetyl-8-bromo-5-chloro-2-(((5-methylisoxazol-3-yl)methyl)sulfinyl)quinolin-4(1H)-one] | > 10 µM | 680 nM | 1660 nM | 950 nM | 850 nM | 1440 nM | 760 nM | 1070 nM | 630 nM | > 2000 nM | > 2000 nM | > 10000 nM | > 2000 nM | > 2000 nM | 760 nM | > 2000 nM
8 | COc1cccc(C[S+]([O-])c2[nH]c3c(Br)ccc(Cl)c3c(=O)c2C(C)=O)c1 (stereo not drawn) [Compound 55, 3-acetyl-8-bromo-5-chloro-2-((3-methoxybenzyl)sulfinyl)quinolin-4(1H)-one] | > 10 µM | > 2000 nM | > 2000 nM | > 2000 nM | 1300 nM | 1470 nM | > 2000 nM | > 2000 nM | > 2000 nM | > 2000 nM | > 2000 nM | > 10000 nM | > 2000 nM | > 2000 nM | 1690 nM | > 2000 nM
9 | CC(=O)c1c([S+]([O-])Cc2ccc([N+](=O)[O-])cc2)[nH]c2c(Cl)ccc(Cl)c2c1=O (stereo not drawn) [Compound 57, 3-acetyl-5,8-dichloro-2-((4-nitrobenzyl)sulfinyl)quinolin-4(1H)-one] | > 10 µM | > 2000 nM | > 2000 nM | > 2000 nM | > 2000 nM | > 2000 nM | > 2000 nM | > 2000 nM | > 2000 nM | > 2000 nM | > 2000 nM | > 10000 nM | > 2000 nM | > 2000 nM | > 2000 nM | > 2000 nM
10 | COc1cc(C[S+]([O-])c2[nH]c3c(Br)ccc(Cl)c3c(=O)c2C(C)=O)cc(OC)c1 (stereo not drawn) [Compound 59, 3-acetyl-8-bromo-5-chloro-2-((3,5-dimethoxybenzyl)sulfinyl)quinolin-4(1H)-one] | > 10 µM | 1560 nM | > 2000 nM | 1990 nM | 1010 nM | 1380 nM | 1150 nM | > 2000 nM | > 2000 nM | > 2000 nM | > 2000 nM | > 10000 nM | > 2000 nM | > 2000 nM | 1380 nM | > 2000 nM
11 | CC(=O)c1c([S+]([O-])Cc2ccc(C(C)(C)C)cc2)[nH]c2c(Br)ccc(Cl)c2c1=O (stereo not drawn) [Compound 60, 3-acetyl-8-bromo-2-((4-(tert-butyl)benzyl)sulfinyl)-5-chloroquinolin-4(1H)-one] | > 10 µM | > 2000 nM | > 2000 nM | > 2000 nM | 1270 nM | 1630 nM | > 2000 nM | > 2000 nM | > 2000 nM | > 2000 nM | > 2000 nM | > 10000 nM | > 2000 nM | > 2000 nM | > 2000 nM | > 2000 nM
12 | CC(=O)c1c([S+]([O-])Cc2ccc([S+]([O-])C(F)(F)F)cc2)[nH]c2c(Br)ccc(Cl)c2c1=O (stereo not drawn) [Compound 64, 3-acetyl-8-bromo-5-chloro-2-((4-((trifluoromethyl)sulfinyl)benzyl)sulfinyl)quinolin-4(1H)-one] | > 10 µM | 1120 nM | > 2000 nM | 1500 nM | 1070 nM | 1460 nM | 1090 nM | 1850 nM | > 2000 nM | > 2000 nM | > 2000 nM | > 10000 nM | > 2000 nM | > 2000 nM | 1220 nM | > 2000 nM
